Read-outs that look alike come from different tables or passages of the source.
Experiments:
[1] = system: HepG2; test: HepG2 Cell Titer-GLO luminescent cell viability assay; type: cell-based; conditions: Homo sapiens, HepG2, 72 h, read-out: HepG2 (luminescence) IC50(72h)
Description: 561 Mammalian cell culture experiments
562 The HepG2 (Human hepatocyte carcinoma) cell line was procured from ATCC (American Type
563 Culture Collection, Manassas, USA; HB-8065) and viability assessed using Cell Titer-GLO luminescent
564 cell viability assay reagents (Promega, catalogue number: G7570) (47, 48). For the assay, 2000 cells/well
565 were plated in 384-well plates 24 h prior to the experiment and incubated at 37°C in a CO2 incubator. The
566 medium was removed and cells were treated with fresh medium containing either vehicle (0.5% DMSO)
567 or serially diluted test compounds or doxorubicin (1.3 nM to 25 µM) in a final volume of 50 µl/well and
568 further incubated for 72 h at 37°C in a CO2 incubator.
569 were treated with 5 µl of 1% Triton X-100 (final assay conc. 0.1%). Following incubation, 25 µl of medium
570 was discarded and 25 µl of Cell Titer-GLO reagent was added to each well and the plate was kept on a plate
571 shaker for 15 min at 25°C with shaking at 300 rpm. Luminescence signals were measured in a Spectramax
572 M5 reader (Molecular Devices). […]
585 37°C humidified incubator as adherent semi-confluent monolayers in complete Dulbecco’s Modified Eagle
586 Media (c-DMEM). DMEM (Gibco™, Thermo Fisher Scientific, Australia) was supplemented with 10%

[2] = system: P. falciparum male gametes; test: Dual gamete formation assay (male); type: cell-based; conditions: Plasmodium falciparum
Description: 604 Activity against transmissible stages of P. falciparum
605 Activity against male gametes was assessed using the dual gamete formation assay (PfDGFA)(32).
(§1) 606 Compounds were incubated with mature stage V gametocytes ([…], kind gift from Professor Chris Janse
(§2) 607 at Leiden University Medical Center (LUMC), the Netherlands) for 48 hours in 384 well plates before
608 gamete formation was triggered by a drop in temperature and addition of xanthurenic acid. Male gamete
609 exflagellation was recorded and quantified by automated microscopy. The ability of female gametes to
(§3) 611 Multiple data sets using different gametocyte cultures were collected on each of two separate days.
(§4) 613 Activity against exoerythrocytic stages
(§5) 614 Primary human hepatocytes (H1500.H15B+ Lot No. HC10-10 Cryopreserved human hepatocytes)
(§6) 615 were cultured for 2 days and then overlaid with P. falciparum NF54 sporozoites and compounds.
(§7) 616 Supernatant was refreshed daily with fresh compounds.

[3] = molecular target: human Atg7 (Homo sapiens, UniProt O95352); test: E1-E2 transthiolation HTRF assay, ATG7 (RH-GABARAP); type: biochemical
Sequence of human Atg7 (O95352 whole entry): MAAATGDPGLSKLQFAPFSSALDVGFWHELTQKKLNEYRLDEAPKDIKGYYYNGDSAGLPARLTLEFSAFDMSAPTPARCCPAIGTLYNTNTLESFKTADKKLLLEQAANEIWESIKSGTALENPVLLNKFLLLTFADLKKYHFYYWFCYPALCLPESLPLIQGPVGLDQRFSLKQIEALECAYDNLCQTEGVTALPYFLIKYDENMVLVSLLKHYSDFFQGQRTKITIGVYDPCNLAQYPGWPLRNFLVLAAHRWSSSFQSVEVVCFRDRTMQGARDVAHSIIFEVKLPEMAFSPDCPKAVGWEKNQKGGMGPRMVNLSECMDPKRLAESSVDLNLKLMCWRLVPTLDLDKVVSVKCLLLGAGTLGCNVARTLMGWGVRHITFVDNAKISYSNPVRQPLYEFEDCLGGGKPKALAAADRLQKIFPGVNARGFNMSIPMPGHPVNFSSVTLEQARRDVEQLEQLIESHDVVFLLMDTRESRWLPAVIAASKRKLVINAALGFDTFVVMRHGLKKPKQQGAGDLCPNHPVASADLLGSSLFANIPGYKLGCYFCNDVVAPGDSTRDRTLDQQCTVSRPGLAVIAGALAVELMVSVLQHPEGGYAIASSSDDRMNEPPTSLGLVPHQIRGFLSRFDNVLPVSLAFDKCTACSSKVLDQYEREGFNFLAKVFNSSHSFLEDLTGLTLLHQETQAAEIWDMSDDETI
Source text: 592 E1-E2 Transthiolation Assays
593 An Homogeneous Time-Resolved Fluorescence (HTRF) enzyme assay was employed to evaluate
594 compound activity against ATG7 as previously described (11). In this assay, a Flag-tagged ATG8 homolog
595 (GABA type A receptor-associated protein; GABARAP) is activated by ATG7 and then transthiolated to a
596 GST-tagged E2 (ATG3). The product of the enzyme reaction, Flag-GABARAP-ATG3-GST, is quantified
597 by measuring FRET between Europium-Cryptate labelled monoclonal anti-Flag M2 (CisBio International,
598 Cat# 61FG2KLB) and PHYCOLINK goat anti-GST allophycocyanin (Prozyme, PJ252p1). […]
as §1, §2
608 gamete formation was triggered by a drop in temperature and addition of xanthurenic acid. […]
as §3, §4, §5, §6, §7

[4] = molecular target: PfYRS (Plasmodium falciparum, UniProt Q8IAR7); test: ATP consumption by PfYRS (Kinase-Glo); type: biochemical
Sequence of PfYRS (Q8IAR7 entry or part of it): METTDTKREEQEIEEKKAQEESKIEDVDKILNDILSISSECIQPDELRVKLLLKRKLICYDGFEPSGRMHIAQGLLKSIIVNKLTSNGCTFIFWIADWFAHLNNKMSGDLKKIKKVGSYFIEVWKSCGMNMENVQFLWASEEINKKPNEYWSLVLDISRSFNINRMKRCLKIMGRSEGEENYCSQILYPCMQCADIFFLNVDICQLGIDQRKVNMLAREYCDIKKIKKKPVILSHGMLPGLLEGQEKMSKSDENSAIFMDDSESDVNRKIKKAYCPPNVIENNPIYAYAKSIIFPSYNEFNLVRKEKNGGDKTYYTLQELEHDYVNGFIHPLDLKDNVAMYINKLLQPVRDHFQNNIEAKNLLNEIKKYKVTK
Description: 804 An intron was detected in the PftRNATyr sequence, that was not indicated in PlasmoDB. A T7 RNA
805 polymerase promoter sequence was added to the 5’ end of the DNA sequence of P. falciparum and H.
806 sapiens tRNATyr. This DNA template and its complementary strand were custom-synthesized by Sigma-
807 Aldrich. Two oligonucleotides were annealed at 95°C for 5 min and the double-stranded DNA template
808 was used for in vitro transcription. The transcription reaction was incubated at 37°C overnight. The reaction
809 mixture consists of template DNA, T7 RNA polymerase and NTP mix as per manufacturer's instructions
810 (HiScribe™ T7 Quick High Yield RNA Synthesis Kit, NEB). On the following day, the reaction mixture
811 was treated with DNase I at 37°C for 15 min. tRNA was purified using RNA clean-up spin columns
812 (Monarch® RNA Cleanup Kit, NEB) to remove contaminants from the transcription reaction. […]
820 was sealed and analysed using StepOnePlus Real-Time PCR system (Applied Biosystems). […]
822 as the first derivative curve of the raw fluorescence values. […]
824 values were calculated from DTm using the equation: ln(KD/[L]) = -131.5 x (∆Tm/Tm,apo) - 1.9, where [L] […]
828 Consumption of ATP by YRS was measured using a luciferase-based assay as per the manufacturer’s […]
836 The aminoacylation activity of YRS was measured by the incorporation of tritiated L-tyrosine into tRNATyr […]

`Nc1ncnc2c1c(OC(F)F)nn2[C@@H]1O[C@H](COS(N)(=O)=O)[C@@H](O)[C@H]1O` [ML901] gave an IC50 [1] of 1.63 µM, an IC50 ([2]; 48 h incubation with stage V gametocytes) of 0.13 ± 0.01 µM and an inhibition at 25 µM ([2]; at 25 µM) of 99%. It also gave an IC50 [3] of 0.033 µM, an IC50 ([4]; in the absence of cognate tRNATyr, read-out: IC50 (-PftRNATyr), ATP consumption by PfYRS) greater than 500 µM and an IC50 ([4]; in the presence of cognate tRNATyr, read-out: IC50 (+PftRNATyr), ATP consumption by PfYRS) of 25 µM.

Reference: PMC7613620, “Reaction hijacking of tyrosine tRNA synthetase as a whole-of-life-cycle antimalarial strategy” (Science (New York, N.Y.), 2022)
